Converted amounts (≈) assume the structure as drawn. Like-named read-outs stand apart in the source and are kept apart here. Where no end group is shown, it is not given here.
Legend:
[1] = tested on: P. aeruginosa (ATCC 10145)
How it was run: (§1)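 Inoculum 10^6 CFU/mL in CAMHB against 2-fold peptide series; salt variants used 150 mM NaCl, 4.5 mM KCl, 6 mM NH4Cl, 1 mM MgCl2, 2 mM CaCl2, or 25% FBS.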

[2] = tested on: nonresistant and MDR S. pneumoniae; conditions: Table 2
How it was run: as §1

[3] = tested on: S. pneumoniae (ATCC 49619); conditions: Gram-positive; CLSI microdilution, CAMHB + 2.5% lysed horse blood, 37 °C, 24 h; highest MIC of three independent experiments in triplicate
How it was run: as §1

[4] = tested on: P. aeruginosa (ATCC BAA-1744); conditions: Gram-negative, resistant strain (marked a; imipenem resistant in Table S3); CLSI microdilution, CAMHB, 37 °C, 24 h; highest MIC of three independent experiments in triplicate
How it was run: as §1

MRSA (ATCC BAA-1556) = conditions: for MIC, MRSA (ATCC BAA-1556), Control: MH media without salt ions or serum; for MIC, MRSA (ATCC BAA-1556), Control / MIC, MRSA (ATCC BAA-1556), MgCl2 / MIC, MRSA (ATCC BAA-1556), CaCl2 / MIC, MRSA (ATCC BAA-1556), KCl / MIC, MRSA (ATCC BAA-1556), NH4Cl / MIC, MRSA (ATCC BAA-1556), NaCl / MIC, MRSA (ATCC BAA-1556), FBS (25%): three independent experiments in triplicate; for MIC, MRSA (ATCC BAA-1556): broth microdilution (CLSI), CAMHB, 37 °C, 24 h; for MIC, MRSA (ATCC BAA-1556), MgCl2: media with 1 mM MgCl2; for MIC, MRSA (ATCC BAA-1556), CaCl2: media with 2 mM CaCl2; for MIC, MRSA (ATCC BAA-1556), KCl: media with 4.5 mM KCl; for MIC, MRSA (ATCC BAA-1556), NH4Cl: media with 6 mM NH4Cl; for MIC, MRSA (ATCC BAA-1556), NaCl: media with 150 mM NaCl; for MIC, MRSA (ATCC BAA-1556), FBS (25%): media with 25% fetal bovine serum
How it was run: as §1

[5] = tested on: Bacillus subtilis (ATCC 6633)
How it was run: as §1

E. coli (ATCC BAA-2452) = conditions: Gram-negative, NDM-1; CLSI microdilution, CAMHB, 37 °C, 24 h; highest MIC of three independent experiments in triplicate
How it was run: as §1

[6] = tested on: A. baumannii (ATCC BAA1605); conditions: Gram-negative, footnote e ciprofloxacin (MDR in Table S3); CLSI microdilution, CAMHB, 37 °C, 24 h; highest MIC of three independent experiments in triplicate
How it was run: as §1

E. coli (ATCC 25922) = conditions: for MIC, E. coli (ATCC 25922): broth microdilution (CLSI), CAMHB, 37 °C, 24 h
How it was run: as §1

E. faecalis (ATCC 29212) = tested on: E. faecalis (ATCC 29212)
How it was run: as §1

[7] = tested on: S. pneumoniae (ATCC 700677); conditions: Gram-positive, multi-drug resistant (penicillin, tetracycline, erythromycin); CAMHB + 2.5% lysed horse blood, 37 °C, 24 h; highest MIC of three independent experiments in triplicate
How it was run: as §1

[8] = tested on: Klebsiella pneumonia (ATCC 13883)
How it was run: as §1

[9] = Relative hydrophobicity as RP-HPLC retention time; format: physicochemical; conditions: chromatographic, Phenomenex Luna C18 4 μm 150 × 4.6 mm, linear AB gradient 1% acetonitrile/min, 0.3 mL/min, A water 0.1% TFA, B acetonitrile 0.1% TFA, 25 °C
How it was run: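 Retention time on analytical RP-HPLC serves as the hydrophobicity measure, using a 150 × 4.6 mm C18 column, 4 μm particles. Eluents: 0.1% TFA in water and 0.1% TFA in acetonitrile.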

[10] = 10^6 CFU/mL, highest MIC of three independent experiments in triplicate
[11] = media with 4.5 mM KCl, three independent experiments in triplicate
[12] = media with 6 mM NH4Cl, three independent experiments in triplicate
[13] = Gram-negative, CLSI microdilution, CAMHB, 37 °C, 24 h, highest MIC of three independent experiments in triplicate
[14] = media with 1 mM MgCl2, three independent experiments in triplicate
[15] = media with 2 mM CaCl2, three independent experiments in triplicate
[16] = Gram-positive, CLSI microdilution, CAMHB, 37 °C, 24 h, highest MIC of three independent experiments in triplicate
[17] = MH media without salt ions or serum, three independent experiments in triplicate

Molecule | MIC, P. aeruginosa (ATCC BAA-1744) [4] [µg/mL] | MIC, MRSA (ATCC BAA-1556), Control (MRSA (ATCC BAA-1556)) [µg/mL] | MIC, MRSA (ATCC BAA-1556) (MRSA (ATCC BAA-1556); [10]) [µg/mL] | MIC, MRSA (ATCC BAA-1556), MgCl2 (MRSA (ATCC BAA-1556)) [µg/mL] | MIC, MRSA (ATCC BAA-1556), CaCl2 (MRSA (ATCC BAA-1556)) [µg/mL] | MIC, MRSA (ATCC BAA-1556), KCl (MRSA (ATCC BAA-1556)) [µg/mL] | MIC, MRSA (ATCC BAA-1556), NH4Cl (MRSA (ATCC BAA-1556)) [µg/mL] | MIC, MRSA (ATCC BAA-1556), NaCl (MRSA (ATCC BAA-1556)) [µg/mL] | MIC, MRSA (ATCC BAA-1556), FBS (25%) (MRSA (ATCC BAA-1556)) [µg/mL] | MIC, MRSA (ATCC BAA-1556) (MRSA (ATCC BAA-1556); value in parentheses (μM)) [µM] | MIC, Bacillus subtilis (ATCC 6633) ([5]; ATCC 6633, 24 h) [µg/mL] | MIC, E. coli (ATCC BAA-2452) (E. coli (ATCC BAA-2452)) [µg/mL] | MIC, A. baumannii (ATCC BAA1605) [6] [µg/mL] | MIC, E. coli (ATCC 25922), FBS (25%) (E. coli (ATCC 25922); ATCC 25922, 24 h) [µg/mL] | MIC, E. coli (ATCC 25922), NaCl (E. coli (ATCC 25922); ATCC 25922, 24 h) [µg/mL] | MIC, E. coli (ATCC 25922) (E. coli (ATCC 25922); [10]) [µg/mL] | MIC, E. coli (ATCC 25922) (E. coli (ATCC 25922); value in parentheses (μM)) [µM] | MIC, S. pneumoniae (ATCC 700677) [7] [µg/mL] | tR, RP-HPLC retention time (measure of overall hydrophobicity) [9] [min] | MIC, E. faecalis (ATCC 29212) (E. faecalis (ATCC 29212); [16]) [µg/mL] | further results
KWLKKWLKWWKK-NH2 [8b] | 6.2 | 3.1 | 3.1 | 6.2 | 6.2 | 6.2 | 6.2 | 12.5 | 12.5 | 1.76 | 3.1 | 6.2 | 3.1 | 25 | 25 | 6.2 | 3.53 | 12.5 | 33.41 |  | MIC, P. aeruginosa (ATCC 10145) ([1]; ATCC 10145, 24 h): 6.2 µg/mL; MIC, nonresistant and MDR S. pneumoniae [2]: 12.5 µg/mL; MIC, S. pneumoniae (ATCC 49619) [3]: 12.5 µg/mL; MIC, E. coli (ATCC 25922), CaCl2 (E. coli (ATCC 25922); ATCC 25922, 24 h): 25 µg/mL; MIC, E. coli (ATCC 25922), Control (E. coli (ATCC 25922); ATCC 25922, 24 h): 6.2 µg/mL; MIC, E. coli (ATCC 25922), MgCl2 (E. coli (ATCC 25922); ATCC 25922, 24 h): 25 µg/mL; MIC, E. coli (ATCC 25922), KCl (E. coli (ATCC 25922); [11]): 12.5 µg/mL; MIC, E. coli (ATCC 25922), NH4Cl (E. coli (ATCC 25922); [12]): 12.5 µg/mL; MIC, E. faecalis (ATCC 29212) (E. faecalis (ATCC 29212); ATCC 29212, 24 h): 6.2 µg/mL; MIC, Klebsiella pneumonia (ATCC 13883) [8, 13]: 12.5 µg/mL
KWIKKWIKWWKK-NH2 [7b] | 12.5 | 6.2 | 6.2 | 6.2 | 12.5 | 12.5 | 12.5 | 25 | 25 | 3.53 | 3.1 | 6.2 | 12.5 | 50 | 25 | 6.2 | 3.53 | 25 | 32.23 | 12.5 | MIC, P. aeruginosa (ATCC 10145) ([1]; ATCC 10145, 24 h): 6.2 µg/mL; MIC, E. coli (ATCC 25922), Control (E. coli (ATCC 25922); ATCC 25922, 24 h): 6.2 µg/mL; MIC, E. coli (ATCC 25922), KCl (E. coli (ATCC 25922); ATCC 25922, 24 h): 25 µg/mL; MIC, E. coli (ATCC 25922), NH4Cl (E. coli (ATCC 25922); ATCC 25922, 24 h): 25 µg/mL; MIC, E. coli (ATCC 25922), MgCl2 (E. coli (ATCC 25922); [14]): 12.5 µg/mL; MIC, E. coli (ATCC 25922), CaCl2 (E. coli (ATCC 25922); [15]): 12.5 µg/mL; MIC, Klebsiella pneumonia (ATCC 13883) ([8]; ATCC 13883, 24 h): 25 µg/mL
RWLRRWLRWWRR-NH2 [8a] | 12.5 | 6.2 | 6.2 | 6.2 | 6.2 | 12.5 | 6.2 | 12.5 | 50 | 3.22 | 3.1 | 12.5 | 6.2 | > 50 | > 50 | 12.5 | 6.49 | 12.5 | 34.99 | 12.5 | MIC, P. aeruginosa (ATCC 10145) ([1]; ATCC 10145, 24 h): 6.2 µg/mL; MIC, E. coli (ATCC 25922), CaCl2 (E. coli (ATCC 25922); ATCC 25922, 24 h): 25 µg/mL; MIC, E. coli (ATCC 25922), KCl (E. coli (ATCC 25922); ATCC 25922, 24 h): 25 µg/mL; MIC, E. coli (ATCC 25922), MgCl2 (E. coli (ATCC 25922); ATCC 25922, 24 h): 50 µg/mL; MIC, E. coli (ATCC 25922), NH4Cl (E. coli (ATCC 25922); ATCC 25922, 24 h): 25 µg/mL; MIC, E. coli (ATCC 25922), Control (E. coli (ATCC 25922); [17]): 12.5 µg/mL; MIC, Klebsiella pneumonia (ATCC 13883) [8, 13]: 12.5 µg/mL
CCCCCCCCCC(=O)N[C@@H](Cc1c[nH]c2ccccc12)C(=O)N[C@H](CC(N)=O)C(=O)N[C@@H](CC(=O)O)C(=O)N[C@@H]1C(=O)NCC(=O)N[C@@H](CCCN)C(=O)N[C@@H](CC(=O)O)C(=O)N[C@H](C)C(=O)N[C@@H](CC(=O)O)C(=O)NCC(=O)N[C@H](CO)C(=O)N[C@@H]([C@H](C)CC(=O)O)C(=O)N[C@@H](CC(=O)c2ccccc2N)C(=O)O[C@@H]1C [daptomycin, reference compound] |  | 1.5 | 1.5 | 3.1 (≈ 1.91 µM) | 3.1 (≈ 1.91 µM) | 1.5 (≈ 0.926 µM) | 1.5 (≈ 0.926 µM) | 1.5 (≈ 0.926 µM) | 3.1 (≈ 1.91 µM) | 0.86 |  |  |  |  |  |  |  | 12.5 |  | 6.2 | MIC, S. pneumoniae (ATCC 49619) [3]: 12.5 µg/mL; MIC, Bacillus subtilis (ATCC 6633) [5, 16]: 0.7 µg/mL
RWIRRWIRWWRR-NH2 [7a] | 12.5 | 6.2 | 6.2 | 6.2 | 6.2 | 12.5 | 6.2 | 12.5 | 25 | 3.22 | 6.2 | 12.5 | 12.5 | 50 | 25 | 6.2 | 3.22 | 25 | 33.93 | 12.5 | MIC, P. aeruginosa (ATCC 10145) [1, 13]: 12.5 µg/mL; MIC, E. coli (ATCC 25922), Control (E. coli (ATCC 25922); [17]): 6.2 µg/mL; MIC, E. coli (ATCC 25922), MgCl2 (E. coli (ATCC 25922); [14]): 12.5 µg/mL; MIC, E. coli (ATCC 25922), CaCl2 (E. coli (ATCC 25922); [15]): 12.5 µg/mL; MIC, E. coli (ATCC 25922), KCl (E. coli (ATCC 25922); [11]): 12.5 µg/mL; MIC, E. coli (ATCC 25922), NH4Cl (E. coli (ATCC 25922); [12]): 12.5 µg/mL; MIC, Klebsiella pneumonia (ATCC 13883) ([8]; ATCC 13883, 24 h): 25 µg/mL

Reference: PMC9841524, “Structure-Based Rational Design of Small α-Helical Peptides with Broad-Spectrum Activity against Multidrug-Resistant Pathogens” (Journal of Medicinal Chemistry, 2022)
